# Values of other authors, collected in patent publication US20140276034A1, “Apparatus Detection of Circulatory Anomalies” (Cardiox Corporation, priority 2013, published 2014).
# Details: manufacturers specified guideline; cited from earlier work
structure (smiles),measurement,value
"CC1(C)C(=CC=CC=CC=CC2=[N+](CCCCS(=O)(=O)[O-])c3ccc4ccccc4c3C2(C)C)N(CCCCS(=O)(=O)[O-])c2ccc3ccccc3c21.[Na+] [ICG, 1H-benz(e)indolium, 2-[7-[1,3-dihydro-1,1-dimethyl-3-(4-sulfobutyl)-2H-benz[e]indo-2-ylidene]-1,3,5-heptatrienyl]-1,1-dimethyl-3-(4-sulfobutyl)-hydroxide, inner salt, sodium]",maximum ICG dose per day,2 milligrams per kilogram of body weight
